Results on 18 molecules are retold here after ChEMBL document CHEMBL4364269, “Identification of a novel orally bioavailable ERK5 inhibitor with selectivity over p38α and BRD4” (Eur J Med Chem, 2019).

For series [1], the target named is Bromodomain-containing protein 4 (Homo sapiens, UniProt O60885). The series can be described thus: Inhibition of BRD4 (unknown origin).
The nature of series [2]: Toxicity in CD1 mouse xenografted with human A2780 cells assessed as body weight at 50 mg/kg, ip administered bid for 10 days (reference value: 96%). The series is classed as organism-based. The following applies: in vivo, 240 h.
In series [3] the test system is A2780. The series is described as follows: Antitumor activity against human A2780 cells xenografted in CD1 mouse assessed as reduction in tumor volume at 50 mg/kg, ip administered bid for 10 days started on day 7 post-tumor inoculation and measured three times per week by digital caliper analysis. The format is functional. (In general: In xenograft studies the graft and the host belong to different species.)

The nature of series [4]: Half life in CD1 mouse at 10 mg/kg, iv measured upto 24 hrs by LCMS analysis. The format is ADME, organism-based. The following applies: in vivo.
Series [5] can be described thus: Permeability across basolateral to apical side in human Caco2 cells. The following applies: Caco-2, read-out: permeability. The format is ADME, cell-based. On the technique in general: Caco-2 cells form a polarised layer with tight junctions and transporters.
A short description of series [6]: Stability in human liver microsomes assessed as intrinsic clearance per mg protein. The format is ADME, Microsome. The following applies: read-out: CLH.
Series [7] is described as follows: Toxicity in CD1 mouse xenografted with human A2780 cells assessed as body weight at 100 mg/kg, po administered bid for 10 days (reference value: 96%). The format is organism-based. The following applies: in vivo, 240 h.
Series [8] in a line: Clearance in CD1 mouse at 10 mg/kg, iv measured upto 24 hrs by LCMS analysis. The series is classed as ADME, organism-based. The following applies: in vivo.
The nature of series [9]: Cmax in CD1 mouse at 10 mg/kg, iv measured upto 24 hrs by LCMS analysis. The series is classed as ADME, organism-based. The following applies: in vivo. Details: dose 10 mg/kg, route intravenous.
Series [10] can be described thus: Oral bioavailability in CD1 mouse at 10 mg/kg measured upto 24 hrs by LCMS analysis. The series is classed as ADME, organism-based. The note with it: in vivo.
Series [11] can be described thus: Stability in mouse liver microsomes assessed as intrinsic clearance per mg protein. The series is classed as ADME, Microsome. The note with it: read-out: CLH. For orientation: Liver microsomes are vesicles of endoplasmic reticulum, rich in cytochrome P450 enzymes.
Series [12] deals with Cytochrome P450 2D6 (Homo sapiens, UniProt P10635). The series can be described thus: Inhibition of CYP2D6 (unknown origin). The format is ADME.
A short description of series [13]: Fraction unbound in plasma (unknown origin). The format is ADME, cell-free.
The nature of series [14]: AUC in CD1 mouse at 10 mg/kg, po measured upto 24 hrs by LCMS analysis. Details: dose 10 mg/kg, time < 24 hr, route oral. The note with it: in vivo. The format is ADME, organism-based.
Series [15] is described as follows: Cmax in CD1 mouse at 10 mg/kg, po measured upto 24 hrs by LCMS analysis. The series is classed as ADME, organism-based. Details: dose 10 mg/kg, route oral. The following applies: in vivo.
Series [16] in a line: Solubility of compound by turbidometry. The format is physicochemical.
In series [17] the target is Mitogen-activated protein kinase 14 (Homo sapiens, UniProt Q16539). The series can be described thus: Inhibition of recombinant N-terminal GST-tagged full length human p38alpha expressed in Escherichia coli cells assessed as substrate phosphorylation using Ulight-MBP peptide as substrate incubated for 1 hr by LANCE assay.
The target in series [18] is Cytochrome P450 2C19 (Homo sapiens, UniProt P33261). The series is described as follows: Inhibition of CYP2C19 (unknown origin). The series is classed as ADME.
Series [19] addresses Cytochrome P450 2C9 (Homo sapiens, UniProt P11712). The series can be described thus: Inhibition of CYP2C9 (unknown origin). The series is classed as ADME.
In series [20] the target is Cytochrome P450 3A4 (Homo sapiens, UniProt P08684). The series can be described thus: Inhibition of CYP3A4 (unknown origin). The format is ADME.
Series [21] has as its system A2780. The series can be described thus: Antitumor activity against human A2780 cells xenografted in CD1 mouse assessed as reduction in tumor volume at 100 mg/kg, po administered bid for 10 days started on day 7 post-tumor inoculation and measured three times per week by digital caliper analysis. The format is functional.
Series [22] can be described thus: Tmax in CD1 mouse at 10 mg/kg, po measured upto 24 hrs by LCMS analysis. The series is classed as ADME, organism-based. The following applies: in vivo.
Series [23] relates to PC-3. The series is described as follows: Growth inhibition of human PC3 cells. The series is classed as functional.
Series [24] can be described thus: Volume of distribution in CD1 mouse at 10 mg/kg, iv measured upto 24 hrs by LCMS analysis. The format is ADME, organism-based. The following applies: in vivo.
A short description of series [25]: AUC in CD1 mouse at 10 mg/kg, iv measured upto 24 hrs by LCMS analysis. The series is classed as ADME, organism-based. Details: time < 24 hr, dose 10 mg/kg, route intravenous. The following applies: in vivo.
Series [26] has as its target T1, Mitogen-activated protein kinase 7 (Homo sapiens, UniProt Q13164). The series is described as follows: Inhibition of ERK5 (unknown origin) using R7129 as substrate incubated for 2 hrs by IMAP fluorescence polarization analysis.
The target in series [27] is T1, Mitogen-activated protein kinase 7. The series can be described thus: Inhibition of HA-tagged ERK5 (unknown origin) coexpressed with mutationally activated EGFP-MEK5D and Gal4-MEF2D in HEK293 cells assessed as reduction in MEF2 transcription by measuring luciferase signal after 20 hrs by luciferase reporter gene assay. The series is classed as cell-based.
Series [28] has the same target. The series can be described thus: Inhibition of recombinant N-terminal His-tagged human ERK5 (2 to 409 residues) co-expressed with GST-tagged human truncated MEK5DD lacking N-terminal 11 residues (13 to 448 residues) in Sf9 insect cells assessed as substrate peptide phosphorylation using (LVEPLTPSGEAPNQ(K-5FAM)-COOH as substrate incubated for 2 hrs by IMAP fluorescence polarisation assay.

T1 sequence (Q13164 whole entry, the tested form may be a part): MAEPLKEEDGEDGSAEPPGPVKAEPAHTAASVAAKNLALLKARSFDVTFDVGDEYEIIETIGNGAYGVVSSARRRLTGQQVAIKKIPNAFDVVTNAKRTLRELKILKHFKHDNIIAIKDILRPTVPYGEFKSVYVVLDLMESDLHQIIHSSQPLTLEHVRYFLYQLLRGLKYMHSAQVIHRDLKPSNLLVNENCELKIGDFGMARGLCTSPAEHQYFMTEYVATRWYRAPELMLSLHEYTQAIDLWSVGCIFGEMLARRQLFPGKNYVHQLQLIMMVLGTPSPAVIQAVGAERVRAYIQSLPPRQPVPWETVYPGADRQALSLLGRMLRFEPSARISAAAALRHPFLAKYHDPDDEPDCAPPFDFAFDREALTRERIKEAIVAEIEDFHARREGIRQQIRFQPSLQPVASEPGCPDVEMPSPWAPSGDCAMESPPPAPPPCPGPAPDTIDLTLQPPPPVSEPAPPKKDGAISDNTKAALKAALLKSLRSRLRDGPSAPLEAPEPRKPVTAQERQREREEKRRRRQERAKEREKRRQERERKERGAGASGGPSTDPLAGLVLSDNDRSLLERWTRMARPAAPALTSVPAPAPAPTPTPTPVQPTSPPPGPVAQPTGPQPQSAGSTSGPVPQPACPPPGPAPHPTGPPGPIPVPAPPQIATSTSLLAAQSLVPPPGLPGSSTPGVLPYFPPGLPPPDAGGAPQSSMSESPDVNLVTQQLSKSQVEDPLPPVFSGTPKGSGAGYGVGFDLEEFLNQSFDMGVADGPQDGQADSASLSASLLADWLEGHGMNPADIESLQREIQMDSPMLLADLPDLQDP
Mitogen-activated protein kinase 14, sequence (Q16539 whole entry): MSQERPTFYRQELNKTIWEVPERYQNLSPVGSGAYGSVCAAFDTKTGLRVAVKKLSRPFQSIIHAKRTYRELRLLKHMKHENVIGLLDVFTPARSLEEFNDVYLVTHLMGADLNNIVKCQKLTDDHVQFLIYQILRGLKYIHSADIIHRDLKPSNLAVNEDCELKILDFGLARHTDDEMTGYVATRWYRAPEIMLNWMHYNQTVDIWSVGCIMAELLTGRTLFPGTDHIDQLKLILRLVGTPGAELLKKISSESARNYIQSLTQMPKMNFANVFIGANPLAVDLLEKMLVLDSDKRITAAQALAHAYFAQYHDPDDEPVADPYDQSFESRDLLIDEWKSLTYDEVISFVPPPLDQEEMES
Cytochrome P450 2C19, sequence (P33261 whole entry): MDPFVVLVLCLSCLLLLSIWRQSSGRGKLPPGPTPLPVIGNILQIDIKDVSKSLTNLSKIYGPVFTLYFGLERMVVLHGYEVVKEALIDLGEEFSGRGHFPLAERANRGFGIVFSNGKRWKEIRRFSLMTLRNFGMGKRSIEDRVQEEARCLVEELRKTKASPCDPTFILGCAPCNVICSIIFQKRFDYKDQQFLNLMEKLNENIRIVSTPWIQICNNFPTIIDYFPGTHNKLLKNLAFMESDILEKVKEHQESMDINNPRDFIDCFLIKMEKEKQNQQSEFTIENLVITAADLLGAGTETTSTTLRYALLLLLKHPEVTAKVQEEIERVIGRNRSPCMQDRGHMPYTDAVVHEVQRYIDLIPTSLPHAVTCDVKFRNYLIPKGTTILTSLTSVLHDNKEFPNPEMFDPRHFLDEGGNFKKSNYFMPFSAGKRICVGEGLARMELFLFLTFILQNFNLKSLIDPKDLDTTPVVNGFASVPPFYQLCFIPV
Cytochrome P450 2D6, sequence (P10635 whole entry): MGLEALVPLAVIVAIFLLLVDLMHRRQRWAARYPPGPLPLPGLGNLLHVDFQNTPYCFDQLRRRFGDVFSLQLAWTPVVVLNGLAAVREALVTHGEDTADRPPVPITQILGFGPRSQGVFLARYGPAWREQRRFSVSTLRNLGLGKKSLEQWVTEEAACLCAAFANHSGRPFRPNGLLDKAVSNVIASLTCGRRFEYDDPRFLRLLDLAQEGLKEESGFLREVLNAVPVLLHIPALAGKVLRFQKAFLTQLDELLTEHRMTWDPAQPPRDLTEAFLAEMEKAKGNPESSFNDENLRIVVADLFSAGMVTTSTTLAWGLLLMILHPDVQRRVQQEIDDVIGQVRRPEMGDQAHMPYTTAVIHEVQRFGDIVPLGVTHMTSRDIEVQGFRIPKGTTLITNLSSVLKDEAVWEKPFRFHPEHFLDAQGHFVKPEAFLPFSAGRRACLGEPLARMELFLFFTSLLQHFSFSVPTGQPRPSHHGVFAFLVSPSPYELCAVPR
Cytochrome P450 2C9, sequence (P11712 whole entry): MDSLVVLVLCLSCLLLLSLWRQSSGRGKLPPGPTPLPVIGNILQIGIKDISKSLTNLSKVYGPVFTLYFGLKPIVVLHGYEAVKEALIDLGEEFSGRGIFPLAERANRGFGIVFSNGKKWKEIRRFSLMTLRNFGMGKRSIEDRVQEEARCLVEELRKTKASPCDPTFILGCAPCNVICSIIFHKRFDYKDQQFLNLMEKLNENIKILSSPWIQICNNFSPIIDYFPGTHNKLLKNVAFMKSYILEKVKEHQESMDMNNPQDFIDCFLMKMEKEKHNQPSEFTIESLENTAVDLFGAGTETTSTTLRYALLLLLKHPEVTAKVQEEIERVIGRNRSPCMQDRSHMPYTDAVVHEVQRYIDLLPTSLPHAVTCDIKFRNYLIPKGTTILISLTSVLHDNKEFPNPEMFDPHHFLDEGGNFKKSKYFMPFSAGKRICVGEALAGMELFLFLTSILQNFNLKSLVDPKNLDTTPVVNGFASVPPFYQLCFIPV
Cytochrome P450 3A4, sequence (P08684 whole entry): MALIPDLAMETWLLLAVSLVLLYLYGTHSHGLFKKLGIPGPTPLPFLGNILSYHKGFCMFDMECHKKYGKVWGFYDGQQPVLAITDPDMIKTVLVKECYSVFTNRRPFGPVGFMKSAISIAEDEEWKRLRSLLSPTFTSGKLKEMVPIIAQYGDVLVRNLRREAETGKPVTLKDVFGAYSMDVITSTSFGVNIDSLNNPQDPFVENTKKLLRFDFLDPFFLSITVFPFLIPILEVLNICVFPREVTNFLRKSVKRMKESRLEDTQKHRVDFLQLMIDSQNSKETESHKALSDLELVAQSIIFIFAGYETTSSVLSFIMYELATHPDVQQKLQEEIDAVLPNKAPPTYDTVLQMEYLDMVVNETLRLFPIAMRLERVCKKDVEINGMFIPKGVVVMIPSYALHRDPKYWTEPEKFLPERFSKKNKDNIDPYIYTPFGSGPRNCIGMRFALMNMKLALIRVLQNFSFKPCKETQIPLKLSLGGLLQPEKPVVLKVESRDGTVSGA

What is called Kd is the free concentration of one partner at which half of the binding sites on the other are occupied at equilibrium, for simple one-to-one binding. For orientation: inhibition in vivo means the change of the read-out against control, counted positive when it falls. As to `CCOc1cc(N2CCC(O)CC2)ccc1Nc1ncc2c(n1)N(C)c1ccccc1C(=O)N2C`, binding in series [1] was characterised by a dissociation constant (Kd) of 1.6 µM. Besides, the Activity in series [2] amounted to 98%. Moreover, in series [3], the inhibition in vivo at 50 mg/kg stood at 62%.

In general, half-life refers to how long it takes for the measured level to halve. Read a low half-life as rapid decline. By clearance is commonly meant a measure of how efficiently the substance is removed, as volume per time. A higher clearance goes with efficient removal. What is called Cmax is the maximum level reached in the sampled fluid or tissue. For orientation: bioavailability means the share of a dose that reaches the circulation, judged against a reference dose that is usually intravenous. A word on the IC50: it is the midpoint of a concentration-inhibition curve. For orientation: fraction unbound means free concentration divided by total concentration. The low end stands for extensive binding, the high end for weak binding. The AUC is the area under the concentration-time curve, a measure of exposure. In general, kinetic solubility refers to solubility judged after dilution from a stock solution rather than from solid. Broadly, the Tmax is the time at which the peak concentration occurs. For orientation: GI50 means the concentration giving 50% growth inhibition. Lower therefore signals greater sensitivity of the cells. In general, Vd refers to the apparent volume that relates the amount in the body to the concentration in plasma or blood. Read a low Vd as confinement near the circulation. Regarding `O=C(Nc1cccnc1)c1cc(C(=O)c2c(F)cccc2Br)c[nH]1`, the half-life in series [4] turned out to be 38 min. Further, the Papp B→A in [5] was greater than 10 ×10⁻⁶ cm/s. Also, the microsomal CLint was less than 5 µL/min/mg in [6] and 26 µL/min/mg in series [11]. For the same molecule, in [7], the Activity was 99%. The clearance in series [8] is 27 mL/min/kg. Also, the Cmax in [9] was 25 µM; in [15] it was 6 µM. In series [10], this molecule showed a bioavailability of 68%. Besides, the IC50 in series [12] was greater than 5 µM; in [17] it was greater than 120 µM; in [18] it was greater than 5 µM; in series [19], greater than 5 µM; in series [20], greater than 5 µM. In series [13], the fraction unbound was 0.06. Besides, the AUC at 24 h is 4230 ng·h/mL in series [14] and 6200 ng·h/mL in series [25]. For the same molecule, the solubility (kinetic) in series [16] is greater than 100 µM. Also, in series [21], the inhibition in vivo at 100 mg/kg worked out at 57%. For the same molecule, in series [22], the Tmax is 15 min. In series [23], this molecule returned a GI50 of 44 µM. Moreover, in series [24], the Vd came to 1.2 L/kg.

In the case of `O=C(NCc1ccncc1)c1cc(C(=O)c2cccc(Cl)c2Cl)c[nH]1`, in series [26], it took 2 µM to reach half-maximal inhibition (IC50).

On to `O=C(Nc1ccncc1)c1cc(C(=O)c2c(F)cccc2F)c[nH]1`, for which the IC50 in series [27] came to 8 µM; in [17], 100 µM.

`O=C(NCc1ccncc1)c1cc(C(=O)c2c(F)cccc2F)c[nH]1`: the IC50 in series [17] is 0.58 µM; in series [28] it was 30 µM.

As for `O=C(NCc1ccncc1)c1cc(C(=O)c2c(Cl)cccc2Cl)c[nH]1`, the figures for the half-maximal inhibitory concentration (IC50) in series [17] and in [28] were 12.3 µM and 4.4 µM, respectively.

As to `O=C(Nc1cccnc1)c1cc(C(=O)c2c(F)cccc2Cl)c[nH]1`, in [17], the IC50 is 93.2 µM.

On to `O=C(NCc1ccncc1)c1cc(C(=O)c2cccc(F)c2F)c[nH]1`, for which the IC50 in series [17] came out at 2.4 µM; in series [28], 7 µM.

For the molecule `O=C(NCc1ccncc1)c1cc(C(=O)c2ccccc2Cl)c[nH]1`, the IC50 in series [28] was 15 µM.

Regarding `O=C(Nc1cccnc1)c1cc(C(=O)c2c(F)cccc2F)c[nH]1`, the IC50 in series [17] stood at 35 µM; in [28], 1.1 µM.

Consider `O=C(c1ccc(Cl)cc1)c1c[nH]c(C(=O)NCc2ccncc2)c1`, for which, in [28], the IC50 is greater than 120 µM.

Take `O=C(NCc1ccncc1)c1cc(C(=O)c2ccccc2F)c[nH]1`: the IC50 turned out to be 0.36 µM in [17] and 5.9 µM in [28].

As for `O=C(Nc1ccncc1)c1cc(C(=O)c2c(F)cccc2Br)c[nH]1`, the IC50 in series [27] was 4 µM; in [17], greater than 120 µM; in series [28], 0.7 µM.

Consider `O=C(Nc1ccncc1)c1cc(C(=O)c2c(F)cccc2Cl)c[nH]1`, for which the half-inhibitory concentration (IC50) is 2.3 µM in series [27] and greater than 120 µM in series [17].

With `O=C(c1ccc(F)cc1)c1c[nH]c(C(=O)NCc2ccncc2)c1`, the IC50 in series [28] is greater than 120 µM.

Turning to `O=C(c1ccccc1)c1c[nH]c(C(=O)NCc2ccncc2)c1`, in [28], the IC50 is 40 µM.

As to `O=C(c1cccc(Cl)c1)c1c[nH]c(C(=O)NCc2ccncc2)c1`, the IC50 in series [17] came to 6.5 µM; in series [28] it was 6.3 µM.

Take `O=C(c1cccc(F)c1)c1c[nH]c(C(=O)NCc2ccncc2)c1`: the IC50 in [28] was greater than 120 µM.
